The target in the assay is human SIRT1 (Homo sapiens (Human), UniProt Q96EB6). As to the kind of experiment: SIRT1 in vitro deacetylation assay (Fluor-de-Lys, acetylated AMC-labeled p53 peptide). The conditions noted are these: 50 μM substrate peptide, 500 μM NAD+, 30° C., 2 h; for Emax: SIRT1 activation, read-out: Max (%), percentage of maximum activation achieved; for EC1.5 (concentration raising enzyme activity by 50%): concentration required to increase the enzyme activity by 50%, read-out: EC1.5 (SIRT1 activators); for IC50: concentration reducing enzyme activity by 50%, read-out: IC50 (SIRT1 inhibitors). It counts as biochemical. As to the method: The inhibitory activity is measured as the concentration of compound required to reduce the enzyme activity by 50% (IC50).
human SIRT1, sequence (Q96EB6 whole entry): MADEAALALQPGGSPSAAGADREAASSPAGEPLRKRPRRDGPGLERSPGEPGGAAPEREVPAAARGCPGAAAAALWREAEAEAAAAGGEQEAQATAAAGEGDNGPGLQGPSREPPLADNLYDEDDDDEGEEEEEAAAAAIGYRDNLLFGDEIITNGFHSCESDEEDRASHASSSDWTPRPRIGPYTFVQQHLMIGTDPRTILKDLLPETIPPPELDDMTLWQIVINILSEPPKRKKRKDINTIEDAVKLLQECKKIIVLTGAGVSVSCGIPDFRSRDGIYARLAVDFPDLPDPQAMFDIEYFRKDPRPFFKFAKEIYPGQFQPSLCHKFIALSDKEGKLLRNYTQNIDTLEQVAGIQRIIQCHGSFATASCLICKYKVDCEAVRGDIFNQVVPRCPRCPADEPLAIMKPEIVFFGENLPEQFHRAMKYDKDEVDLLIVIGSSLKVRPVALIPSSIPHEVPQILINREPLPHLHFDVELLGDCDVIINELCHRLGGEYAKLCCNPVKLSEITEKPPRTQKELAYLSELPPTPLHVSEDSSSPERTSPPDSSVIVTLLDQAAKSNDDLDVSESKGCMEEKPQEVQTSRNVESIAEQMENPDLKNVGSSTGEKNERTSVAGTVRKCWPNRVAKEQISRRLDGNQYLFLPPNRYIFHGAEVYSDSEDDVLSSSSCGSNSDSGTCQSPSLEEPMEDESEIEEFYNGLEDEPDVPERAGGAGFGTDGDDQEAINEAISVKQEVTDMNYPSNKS
Activation in this assay is measured both as the concentration of compound required to increase the enzyme activity by 50% (EC1.5) as well as by the percentage of maximum activation achieved (Max %) (see, FIG. 1).
The reactions were carried out in a 96-well microplate for fluorometry in a 50 μl reaction volume. After the deacetylation reaction, Fluor-de-Lys-Developer II (BioMol. Cat. #KI-176) was added to each well to digest the deacetylated substrate, thus producing the fluorescent signal. The reaction was allowed to develop for 45 minutes at 30° C. with 5% CO2; then the fluorescent signal was measured with an excitation wavelength at 360 nm and an emission wavelength at 460 nm in a microplate-reading fluorometer (GeminiXS; Molecular Devices, Sunnyvale, Calif.). […] All experiments were performed in triplicate.

For twelve compounds, Emax, EC1.5 (concentration raising enzyme activity by 50%) and IC50 results are on record in patent US8835659B2, “Polysubstituted benzofurans and medicinal applications thereof” (Ikerchem, S.L., priority 2010, dated 2014).

Consider `COc1ccc(-c2cc3c(O)cc(O)cc3o2)c(OC)n1` [Example 12, 2-(2,6-dimethoxypyridin-3-yl)benzofuran-4,6-diol], for which the Emax stood at 130%.

Consider `Oc1ccc(C=Cc2cc(O)cc(O)c2)cc1` [Resveratrol, resveratrol, reference compound], for which the Emax is 475%. For the compound `Oc1cc(O)c2cc(-c3ccc(F)cc3)oc2c1` [Example 10, 2-(4-fluorophenyl)-1-benzofuran-4,6-diol], the Emax was determined as 279% and the EC1.5 (concentration raising enzyme activity by 50%) came out at 13.5 nM. For `Oc1ccc(-c2coc3cc(O)cc(O)c23)cc1` [Example 15, 3-(4-hydroxyphenyl)-1-benzofuran-4,6-diol], the half-inhibitory concentration (IC50) came out at 22.8 µM.

Regarding `Oc1cc(O)cc(-c2cc3c(O)cc(O)cc3o2)c1` [Example 8, 2-(3,5-dihydroxyphenyl)-1-benzofuran-4,6-diol], the Emax worked out at 407% and the EC1.5 (concentration raising enzyme activity by 50%) came out at 1.32 nM. Regarding `Oc1cc(O)c2c(-c3cc(F)cc(F)c3)coc2c1` [Example 16, 3-(3,5-difluorophenyl)-1-benzofuran-4,6-diol], the IC50 turned out to be 274 µM.

In the case of `Oc1ccc(-c2cc3c(O)cc(O)cc3o2)cc1` [Example 9, 2-(4-hydroxyphenyl)-1-benzofuran-4,6-diol], the Emax worked out at 444% and the EC1.5 (concentration raising enzyme activity by 50%) amounted to 3.55 nM. Regarding `Oc1cc(O)c2cc(-c3cc(F)cc(F)c3)oc2c1` [Example 13, 2-(3,5-difluorophenyl)benzofuran-4,6-diol], the IC50 came to 36.7 µM.

For `Oc1cc(O)c2cc(-c3cc(O)c(O)c(O)c3)oc2c1` [Example 11, 5-(4,6-dihydroxy-1-benzofuran-2-yl)benzene-1,2,3-triol], the IC50 was 1.84 µM. In the case of `Oc1cc(O)cc(-c2cc3ccc(O)cc3o2)c1` [5-(6-hydroxy-1-benzofuran-2-yl)benzene-1,3-diol, reference compound], the Emax came out at 451% and the EC1.5 (concentration raising enzyme activity by 50%) came out at 11.5 nM. Consider `Oc1cc(O)c2c(-c3cc(F)cc(F)c3)c(Br)oc2c1` [Example 20, 2-bromo-3-(3,5-difluorophenyl)benzofuran-4,6-diol], for which the IC50 amounted to 76.3 µM. Take `Oc1cc(O)c2c(-c3ccc(F)cc3)coc2c1` [Example 19, 3-(4-fluorophenyl)benzofuran-4,6-diol]: the IC50 is 192 µM.
